What was measured:
[1] = tested on: AsPC-1 pancreatic ductal adenocarcinoma cell line; test: Annexin V apoptosis assay, AsPC-1; assay type: cell-based
Protocol: (§1) AsPC-1 (FIG. 4(a)) and Panc-1 (FIG. 4(b)), two pancreatic ductal adenocarcinoma cell line, were cultured for week in the presence or absence of […] of alloferon, and then 5×10^5 cells were cultured with 250 nM of gemcitabine for 36 hrs. To investigate whether alloferon increases the sensitivity of these cell lines against gemcitabine, the degree of cell death was examined by an Annexin V-7AAD assay. Cells were collected and washed three times with cold phosphate-buffered saline (PBS) and then resuspended in 1× Annexin V binding buffer at a concentration of 1×10^6 cells/ml (BD Biosciences). Transfer 100 μl of the solution (1×10^5 cells) to a 5 ml culture tube. Add 5 μl of FITC-conjugated Annexin V and incubated for 15 min at room temperature in the dark. Add 400 μl of 1× Annexin V binding buffer to each tube. After 1 μl of propidium iodide (PI) was added just prior to analyze by flow cytometry. Apoptotic cells were analyzed with LSRII flow cytometer (BD Biosciences) with excitation at 488 nm and emission at 525 nm.

[2] = tested on: Panc-1 pancreatic ductal adenocarcinoma cell line; test: Annexin V apoptosis assay, Panc-1; assay type: cell-based
Protocol: as §1

AsPC-1 cells [3] = test: Mitochondrial membrane potential assay, DiOC6(3) staining; assay type: cell-based; settings: 0.5 mg/ml alloferon for week, 250 nM gemcitabine 36 hours
Protocol: The effect of adjuvant treatment of alloferon and gemcitabine on mitochondrial function was also studied. AsPC-1 cells were cultured for week in the presence or absence of 0.5 mg/ml of alloferon. Then 5×10^5 cells were cultured with 250 nM of gemcitabine for 36 hours. The synergistic effect of alloferon with gemcitabine on the decrease of mitochondrial membrane potential, a general phenomenon associated with cell death by chemotherapeutic drugs, was investigated by staining with DiOC6(3), a green-fluorescent, lipophilic dye (ThermoFisher Scientific). Cells were collected and washed three times with PBS. Then 1×10^6 cells were resuspended in 1 ml freshly prepared 4% paraformaldehyde diluted from stock using PBS for 10 minutes at room temperature and then washed with 1 ml pre-warmed (37° C.) PBS three times. The DiOC6 stock solution was diluted into PBS to make 0.1 μM working solution. The cells were suspended at a density of 1×10^6 cells/ml in dye working solution and protected from light. The cells were incubated at 37° C. for 15 minutes. The cell suspensions were centrifuged at 130×g for 5 minutes. The supernatant was removed and the cells were gently resuspended in 1 ml pre-warmed PBS. The cells were analyzed with LSRII flow cytometer (BD Biosciences) with excitation at 488 nm and emission at 525 nm.

AsPC-1 cells [4] = test: AsPC-1 xenograft model in Balb/C (nu/nu) mice; assay type: in vivo
Protocol: (§2) The anti-tumor effect of concomitant alloferon and gemcitabine treatment was also assessed by using xenograft animal model.
(§3) Tumor burdens from each experimental animals were excised and compared its volumes (FIG. 8).

Panc-1 cells = test: Panc-1 xenograft model in Balb/C (nu/nu) mice; assay type: in vivo
Protocol: as §2, §3

[5] = gemcitabine 250 nM for 36 hrs, alloferon 0.5 μg/ml for a week
[6] = subcutaneous, female Balb/C (nu/nu), calipers every 3-4 days

Nc1ccn([C@@H]2O[C@H](CO)[C@@H](O)C2(F)F)c(=O)n1 [gemcitabine]
cytotoxic effects, ASPC-1 ([1]; gemcitabine 250 nM): do not have cytotoxic effects
apoptosis, AsPC-1 [1, 5]: do not induce apoptosis
cytotoxic effects, PANC-1 ([2]; gemcitabine 250 nM): do not have cytotoxic effects
apoptosis, Panc-1 [2, 5]: do not induce apoptosis
mitochondrial membrane potential / mitochondrial dysfunction (AsPC-1 cells [3]): does not induce mitochondrial dysfunction
tumor growth (tumor volume), AsPC-1 xenograft (AsPC-1 cells [4]; [6]): does not effectively suppress growth
excised tumor burden volume, AsPC-1 xenograft (AsPC-1 cells [4]; tumor burdens excised, FIG. 8): does not effectively suppress growth
tumor growth (tumor volume), Panc-1 xenograft (Panc-1 cells; [6]): does not effectively suppress growth
excised tumor burden volume, Panc-1 xenograft (Panc-1 cells; tumor burdens excised, FIG. 8): does not effectively suppress growth

Reference: patent publication US20200023031A1, “COMPOSITION FOR ANTI-PANCREATIC CANCER AND ANTI-PANCREATIC ADJUVANT COMPRISING ALLOFERON” (AT-Pharma Co., Ltd., priority 2018, published 2020)
